Entries after “also recorded” stand apart in the source; their conditions may differ.
Columns and labels:
[1] = tested on: four different human breast cancer cell lines: MCE-7, SUM-159, TATD, and MDA-MB-231; test: Antineoplastic activity of paclitaxel with or without EQ (cellular ATP levels); assay type: cell-based; conditions: paclitaxel co-administered with varying concentrations of EQ
Description: To determine the effect of EQ on the antineoplastic activity of paclitaxel, the conditions for culturing four cancer cell lines and measuring the ATP levels were optimized for the 96-well plate format. Briefly, 1500 cells/well in media (MDA-MB-231 in DMEM with 10% FBS; MCF-7 in DMEM with 10% FBS; TATD in RPMI with 10% FBS; SUM159 in DMEM/F-12 (250 mL/250 mL) with 5% FBS, 500 μL of 10 mg/mL insulin and 25 μL of 10 mg/mL hydrocordisol) were plated in 96-well plates for 24 h. Constant concentrations of paclitaxel (PTX) with or without EQ were added to the wells for another 24 h. Cellular ATP levels were measured using ViaLight Plus kit (Cambrex) according to the manufacturer's protocol on a LMaxI microplate reader (Molecular Devices, Palo Alto, Calif.).

[2] = target: recombinant hsp90; test: Fluorescence quenching binding assay; conditions: 25° C.
Description: For the fluorescence-quenching assay, fluorescence intensity was recorded on a SpectraMax Gemini XS plate reader (Molecular Devices, Palo Alto, Calif.) using a 96-well black PCR plate (Thermo Scientific, Logan, Utah). Compounds (10 mM in ethanol) were diluted with 50 mM Tris-HCl (pH 7.4) to obtain a solution with a 15 μM final concentration. Aliquots of proteins were added to the compounds solution and mixed with micro pipette by gently pulling in and drawing out the solution. Fluorescence intensities (λex=350 nm, λem=450 nm) were measured at 25° C. Equilibrium dissociation constant KD was obtained by fitting the data using the nonlinear least squares option of the GraphPad Prism software. All experiments were completed in duplicates and repeated at least three times.
To determine the binding efficiency, fluorescence quenching experiments were carried out with recombinant hsp90.

[3] = tested on: diabetic rats; test: Diabetic rats: distal axonal degeneration and autonomic testing; assay type: in vivo, rat; conditions: data not shown
[4] = tested on: hsp90; test: Binding efficacy of paclitaxel to hsp90 in the presence of EQ
Description: Further, it was known that paclitaxel binds to hsp90. To determine if EQ was binding to the same site and displacing paclitaxel, the binding efficacy of paclitaxel to hsp90 was measured. […] It is possible that EQ binds to hsp90 and modifies its chaperone activity for an important client protein.

[5] = tested on: primary DRG neurons; test: Axon length assay, paclitaxel-induced distal axonal degeneration; assay type: cell-based, rat; conditions: 24 hours exposure, βIII-tubulin staining
Description: Measurements of axonal lengths to determine axonal degeneration induced by EQ and representative derivatives were done as described in Keswani et al., “FK506 is neuroprotective in a model of antiretroviral toxic neuropathy,” Annals of Neurology, 53(1):57-64 (2003). Initially, dorsal root ganglia (DRG) cells were harvested from embryonic rats (14.5 days old) according to standard protocol, then cells were plated onto collagen-coated glass coverslips and allowed to extend axons for 24 h in media (Neurobasal medium, 50 mM PS, 0.2% fetal bovine serum (FBS), 0.5 mM glutamine, 1×B-27 supplement, 0.2% glucose, 10 ng/mL glial cell line-derived neurotrophic factor (GDNF)). Paclitaxel (PTX), EQ and representative derivatives, or vehicle controls were added to the wells for another 24 h incubation. DRG cells were fixed with 4% paraformaldehyde and stained with anti-βIII-tubulin antibody to delineate the axons. Axon lengths were measured in multiple fields using a random sampling method as described by Keswani et al., 2003. All experiments were performed in triplicates and repeated twice. Statistical analysis was done using the ANOVA procedure. Correction for multiple comparisons was completed with Fisher's protected least significant difference. Bars marked with * indicate statistically significant differences with p<0.05.

[6] = tested on: hsp90; test: Neuroprotection by EQ with hsp90 siRNA or control siRNA; assay type: cell-based, rat
Description: For the RNA inhibition experiments, transfection with siRNA was carried out according to the manufacturer's protocol. 50B11 cells were plated in 6-well plates in culture medium (Neurobasal medium, 10% fetal bovine serum (FBS), 0.5 mM glutamine, 1×B-27 supplement, 0.2% glucose) without antibiotics overnight and allowed to reach 50-70% confluence. On the second day, 1 μL siRNA oligomer (Ambion, Life Technologies, Carlsbad, Calif.) was diluted in 250 μL Opti-MEM media, and 5 μL Lipofectation 2000 (Invitrogen, Life Technologies, Carlsbad, Calif.) in another 250 μL Opti-MEM media. After 5 minutes incubation, dilutions were combined and incubated for 20 minutes at RT and then the oligomer-Lipofectation 2000 complexes were added to each well. […]
The protein isolation, protein electrophoresis (SDS-PAGE) and Western blotting assays were performed according to the instructions of the manufacturer. […] The measurements of total protein concentrations were performed using BCA kits (Thermo Scientific, Logan, Utah) on SpectraMax 340PC microplate reader (Molecular Devices, Palo Alto, Calif.). Samples (30 μg of total protein per well) and standards (SeeBlue® Plus2 Pre-Stained Standard, Invitrogen, Life Technologies, Carlsbad, Calif.) were loaded onto the wells (Ready Gel® 4-15% Tris-HCl, 50 μL^−1 gel; Bio-Rad, Hercules, Calif.). […]

[7] = tested on: hsp90; test: Colorimetric (malachite green) determination of hsp90 ATPase activity; assay type: biochemical; conditions: wide dose range of EQ
Description: The assay procedure for the colorimetric determination of ATPase activity was based on Rowlands et al., “High-throughput Screening Assay for Inhibitors of Heat-Shock Protein 90 ATPase Activity,” Analytical Biochemistry 327:176-183 (2004). The malachite green reagent was prepared on the day of use. It contained malachite green (Sigma Aldrich, St. Louis, Mo.; 0.0812%, w/v), polyvinyl alcohol (Sigma Aldrich, St. Louis, Mo.; 2.32%, w/v), ammonium molybdate (Sigma Aldrich, St. Louis, Mo.; 5.72%, w/v, in 6 M HCl), and UltraPure Distilled Water (Invitrogen, Life Technologies, Carlsbad, Calif.), mixed in the ratio 2:1:1:2. The reagent was initially dark brown, and then it changed to a golden yellow after 2 h at room temperature, which meant it was ready for use. The assay buffer (pH 7.4) was 100 mM Tris-HCl, 20 mM KCl, 6 mM MgCl2.
The test compounds were dissolved in 100% (v/v) DMSO to give a stock concentration of 10 mM. This solution was diluted to six appropriate concentrations with test compounds in the assay buffer. 5 μL of each compound solution was added to each well of the Perkin-Elmer 96-well assay plate. The first two rows of the 96-well plate contained DMSO only, representing the control and background values, respectively. […] The absorbance at 620 nm was measured using the SpectraMAX 340PC microplate reader (Molecular Devices, Palo Alto, Calif.). […]

[8] = tested on: AJ mice treated with PTX; test: Mouse model of chemotherapy induced peripheral neuropathy (paclitaxel); assay type: in vivo; conditions: various doses daily, PTX 25 mg/kg i.v. days 1, 3, 5
Description: In this model, animals develop thermal hypoalgesia and reduction in sensory nerve action potential (SNAP) amplitudes. AJ mice were given three doses of PTX at 25 mg/kg intravenously every other day (days 1, 3 and 5). Vehicle control or EQ was administered daily starting on day 1 and tissues were harvested at day 19. Immediately before tissue harvest, sensory nerve conduction studies and thermal sensation measurements were carried out.

[9] = tested on: mouse model of HIV-associated sensory neuropathy; test: Mouse model of HIV-associated sensory neuropathy; assay type: in vivo; conditions: 75 μg/kg/day; data not shown

Ethoxyquin [EQ]
effect on paclitaxel's reduction of cell viability (relative ATP levels) [1]: did not affect the ability of paclitaxel to reduce cell viability; also recorded: no significant change in reduced cell viability was observed
Kd [2]: 280 nM
distal axonal degeneration ([3]; 75 μg/kg/day): reverses distal axonal degeneration
erectile dysfunction induced by diabetes (autonomic testing) [3]: prevents erectile dysfunction induced by diabetes
effect on binding of paclitaxel to hsp90 [4]: did not affect the binding of paclitaxel to hsp90; also recorded: does not alter the binding efficacy of paclitaxel to hsp90
distal axonal degeneration induced by PTX (axon lengths) [5]: partially prevented distal axonal degeneration induced by PTX
neuroprotection against paclitaxel with hsp90 siRNA ([6]; PTX+100 nM EQ (+) siRNA, hsp90 downregulated): the neuroprotection by EQ disappeared; also recorded: reverses neuroprotection by EQ
neuroprotection against paclitaxel without hsp90 siRNA ([6]; PTX+100 nM EQ (−) siRNA): Neuroprotection by EQ can be seen
effect on ATPase activity of hsp90 [7]: does not affect the ATPase activity of hsp90; also recorded: does not alter the ATPase activity of hsp90
sensory nerve action potential (SNAP) amplitude ([8]; tail sensory nerves): prevented this reduction in SNAP amplitude
distal axonal degeneration and intraepidermal nerve fiber density in the footpads [8]: loss of distal axons was prevented
thermal hypoalgesia induced by PTX [8]: prevented
distal axonal degeneration [9]: prevents distal axonal degeneration
